Experimental data as given in paper PMC6968685 (Journal of Enzyme Inhibition and Medicinal Chemistry, 2020).

Tests used:
[1] = Cytotoxicity evaluation, MTT; format: cell-based, human; conditions: human
Method: These cells are a commonly used human hepatocarcinoma-derived cell line that has characteristics similar to those of primary hepatocytes. These cells express many hepatocyte-specific metabolic enzymes, thus enabling the cytotoxicity of tested product metabolites to be evaluated. […] Duplicate assays were performed for each sample. Each well was microscopically examined for precipitate formation before the medium was aspirated from the wells. After aspiration, 100 µl of MTT solution (0.5 mg/ml in medium without FCS) were then added to each well. […] The MTT solution was removed, and DMSO (100 µl) was added to dissolve the resulting blue formazan crystals. Plates were shaken vigorously (300 rpm) for 5 min. The absorbance was measured at 570 nm with 630 nm as reference wavelength in a BIO-TEK ELx808 Absorbance Microplate Reader. DMSO was used as blank and doxorubicin (Sigma Aldrich) as positive control. Cell viability was calculated as percentage of control (cells incubated without compound). The CC50 was determined from the dose-response curve using the TableCurve 2D version 5.0 software (Systat Software, San Jose, CA)

[2] = test system: P. falciparum CQ-resistant strain W2; assay: In vitro antiplasmodial activity, SYBR Green I fluorescence-based method, strain W2; format: cell-based; conditions: for IC50: Plasmodium falciparum, chloroquine-resistant strain W2, 48 h incubation, read-out: P. falciparum strains IC50 values, W2; for Selectivity index HepG2/W2: SI = CC50 HepG2 / IC50 P. falciparum W2
Method: (§1) The in vitro antiplasmodial activities were tested over concentrations ranging from […] against culture-adapted P. falciparum reference strains 3D7 and W2. […] The parasites were cultivated in RPMI medium (Sigma-Aldrich, Lyon, France) supplemented with 0.5% Albumax I (Life Technologies Corporation, Paisley, UK), hypoxanthine (Sigma-Aldrich), and gentamicin (Sigma-Aldrich) with human erythrocytes and were incubated at 37 °C in a candle jar, as described previously[43] .The P. falciparum drug susceptibility test was carried out in 96-well flat-bottom sterile plates in a final volume of 250 µl. After 48 h incubation period with the drugs, quantities of DNA in treated and control cultures of parasites in human erythrocytes were quantified using the SYBR Green I (Sigma-Aldrich) fluorescence-based method[44]^,[45]. Briefly, after incubation, plates were frozen at −20 °C until use. Plates were then thawed for 2 h at room temperature, and 100 µl of each homogenised culture was transferred to a well of a 96-well flat-bottom sterile black plate (Nunc, Inc., Rochester, NY) that contained 100 µl of the SYBR Green I lysis buffer (2xSYBR Green, 20 mM Tris base pH 7.5, 5 mM EDTA, 0.008% w/v saponin, 0.08% w/v Triton X-100). […] Plates were incubated for 1 h at room temperature and then read on a fluorescence plate reader (Tecan, Grödig, Austria) using excitation and emission wavelengths of 485 and 535 nm, respectively. IC50 values were calculated by non-linear regression analysis of data from dose-response curves, using TableCurve 2D version 5.0 software (Systat Software, San Jose, CA). IC50 values are reported as means calculated from three independent experiments.

[3] = test system: L. donovani (MHOM/IN/00/DEVI) promastigotes; assay: In vitro antileishmanial activity, MTT assay on promastigotes; format: cell-based; conditions: Leishmania donovani, 72 h incubation, ≥10 = no activity noted at the highest concentration tested
Method: L. donovani (MHOM/IN/00/DEVI) used in this study was provided by the CNR Leishmania (Montpellier, France). The effects of the tested compounds on the growth of L. donovani (MHOM/IN/00/DEVI) promastigotes were assessed by MTT assay. Briefly, promastigotes in log-phase in Schneider’s medium supplemented with 20% foetal calf serum (FCS), 2 mM L-glutamine and antibiotics (100 U/ml penicillin and 100 µg/ml streptomycin), were incubated at an average density of 10^6 parasites/ml in sterile 96-well plates with various concentrations of compounds dissolved in DMSO (final concentration less than 0.5% v/v), in duplicate. Appropriate controls treated with DMSO and amphotericin B (reference drug purchased from Sigma-Aldrich) were added to each set of experiments. After 72 h incubation period at 27 °C, parasite metabolic activity was determined. Each well was microscopically examined for precipitate formation. To each well was added 20 µl of 5 mg/ml MTT [3–(4,5-dimethylthiazol-2-yl)-2,5-diphenyltetrazolium bromide)] solution followed by 4 h incubation time. The enzyme reaction was stopped by addition of 100 µl of 50% isopropanol/10% sodium dodecyl sulfate. Plates were vigorously shaken (300 rpm) for 10 min, and the absorbance was measured at 570 nm in a BIO-TEK ELx808 Absorbance Microplate Reader. […] IC50 of the parasite’s growth (half maximal inhibitory concentration or IC50 values) were then calculated from the obtained experimental results using a previously described regression programme.

[4] = test system: P. falciparum CQ-sensitive strain 3D7; assay: In vitro antiplasmodial activity, SYBR Green I fluorescence-based method, strain 3D7; format: cell-based; conditions: for IC50: Plasmodium falciparum, chloroquine-sensitive strain 3D7, 48 h incubation, read-out: P. falciparum strains IC50 values, 3D7; for Selectivity index HepG2/3D7: SI = CC50 HepG2 / IC50 P. falciparum 3D7
Method: as §1

[5] = test system: T. brucei brucei AnTat 1.9; assay: In vitro antitrypanosomal activity, Alamar Blue assay; format: cell-based; conditions: for Selectivity index HepG2/Tryp.: SI = CC50 HepG2 / IC50 Trypanosoma brucei brucei; for IC50: Trypanosoma brucei, slender bloodstream trypomastigotes, AnTat 1.9 strain, read-out: Trypanosoma brucei brucei IC50 values, Trypanos Antat 1.9
Method: The effects of the tested compounds on the growth of T. brucei brucei were assessed using an Alamar Blue® assay described by Räz et al.[49] T. brucei brucei AnTat 1.9 (IMTA, Antwerpen, Belgium) was cultured in MEM with Earle’s salts, supplemented according to the protocol of Baltz et al.[50] with the following modifications: 0.5 mM mercaptoethanol (Sigma Aldrich), 1.5 mM L-cysteine (Sigma Aldrich), 0.05 mM bathocuproine sulphate (Sigma Aldrich), and 20% heat-inactivated horse serum (Gibco, France) at 37 °C and 5% CO2. Samples were incubated at an average density of 2000 parasites/well in sterile 96-wells plates (Fisher, France) with various concentrations of compounds dissolved in 0.9% NaCl. All doses were tested in duplicate. Appropriate controls treated with solvents 0.9% NaCl or DMSO or with suramin, pentamidine, eflornithine, and fexinidazole (reference drugs purchased from Sigma Aldrich and Fluorochem, UK) were added to each set of experiments. After 69 h incubation period at 37 °C, 10 µl of the viability marker Alamar Blue (Fisher) was added to each well, and the plates were incubated for 5 h. The plates were read in a PerkinElmer ENSPIRE (Germany) microplate reader using an excitation wavelength of 530 nm and an emission wavelength of 590 nm. […] IC50 values were calculated using a nonlinear regression analysis of dose-response curves performed using GraphPad Prism software (La Jolla, CA). IC50 values were calculated from three independent experiments.

| Structure (SMILES) | IC50 [2] | IC50 [3] | IC50 [4] | IC50 [5] | CC50 at 72 h [1] | Selectivity index HepG2/W2 [2] | Selectivity index HepG2/3D7 [4] | Selectivity index HepG2/Tryp. [5] |
| --- | --- | --- | --- | --- | --- | --- | --- | --- |
| COc1ccc2nc(-c3ccc(CNCCCN4CCN(C)CC4)cc3)nc(-c3ccc(CNCCCN4CCN(C)CC4)cc3)c2c1 [Compound 3k, 6-Methoxy-2,4-bis{4-[(3–(4-methylpiperazin-1-yl)propyl)aminomethyl]phenyl}quinazoline] | 4.84 ± 0.58 µM | ≥ 10 µM | 3120 ± 230 nM | 940 ± 89 nM | 22.6 ± 1.1 µM | 4.67 | 7.25 | 24.06 |
| COc1ccc2nc(-c3ccc(CNCCN4CCN(C)CC4)cc3)nc(-c3ccc(CNCCN4CCN(C)CC4)cc3)c2c1 [Compound 3l, 6-Methoxy-2,4-bis{4-[(2–(4-methylpiperazin-1-yl)ethyl)aminomethyl]phenyl}quinazoline] | 1.34 ± 0.29 µM | ≥ 10 µM | 1810 ± 250 nM | 590 ± 57 nM | 6.53 ± 0.6 µM | 4.87 | 3.61 | 11.06 |
| COc1ccc2c(-c3ccc(CNCCN(C)C)cc3)nc(-c3ccc(CNCCN(C)C)cc3)nc2c1 [Compound 3o, 7-Methoxy-2,4-bis{4-[(2-dimethylaminoethyl)aminomethyl]phenyl}quinazoline] | 0.99 ± 0.09 µM | ≥ 10 µM | 610 ± 30 nM | 750 ± 121 nM | 1.14 ± 0.4 µM | 1.15 | 1.87 | 1.52 |
| CN(C)CCNCc1ccc(-c2nc(-c3ccc(CNCCN(C)C)cc3)c3ccccc3n2)cc1 [Compound 3c, 2,4-Bis{4-[(2-dimethylaminoethyl)aminomethyl]phenyl}quinazoline] |  | ≥ 10 µM | 1060 ± 103 nM | 1480 ± 178 nM | 15.9 ± 1.7 µM |  | 14.97 | 10.72 |
| CN(C)CCCCNCc1ccc(-c2nc(-c3ccc(CNCCCCN(C)C)cc3)c3ccccc3n2)cc1 [Compound 3a, 2,4-Bis{4-[(4-dimethylaminobutyl)aminomethyl]phenyl}quinazoline] |  | ≥ 10 µM | 2150 ± 106 nM | 900 ± 54 nM | 4.23 ± 0.4 µM |  | 1.96 | 4.70 |

Further lines, with some results ahead:

| IC50 [2] | IC50 [3] | IC50 [4] | IC50 [5] | Structure (SMILES) | CC50 at 72 h [1] | Selectivity index HepG2/W2 [2] | Selectivity index HepG2/3D7 [4] | Selectivity index HepG2/Tryp. [5] |
| --- | --- | --- | --- | --- | --- | --- | --- | --- |
| 4.1 ± 0.54 µM | ≥ 10 µM | 2590 ± 200 nM | 980 ± 118 nM | COc1ccc2nc(-c3ccc(CNCCCCN4CCN(C)CC4)cc3)cc(-c3ccc(CNCCCCN4CCN(C)CC4)cc3)c2c1 [Compound 1k, 6-Methoxy-2,4-bis{4-[(4–(4-methylpiperazin-1-yl)butyl)aminomethyl]phenyl}quinoline] | 6.16 ± 0.4 µM | 1.50 | 2.38 | 6.28 |
| 7.61 ± 0.94 µM | ≥ 10 µM | 3270 ± 310 nM | 1000 ± 261 nM | COc1ccc2cc(-c3ccc(CNCCCCN4CCN(C)CC4)cc3)nc(-c3ccc(CNCCCCN4CCN(C)CC4)cc3)c2c1 [Compound 2g, 7-Methoxy-1,3-bis{4-[(4–(4-methylpiperazin-1-yl)butyl)aminomethyl]phenyl}isoquinoline] | 10.2 ± 0.9 µM | 1.33 | 3.11 | 10.16 |
| 11.5 ± 1.05 µM | ≥ 10 µM | 10400 ± 580 nM | 1710 ± 145 nM | COc1ccc2c(-c3ccc(CNCCCN4CCN(C)CC4)cc3)nc(-c3ccc(CNCCCN4CCN(C)CC4)cc3)nc2c1 [Compound 3q, 7-Methoxy-2,4-bis{4-[(3–(4-methylpiperazin-1-yl)propyl)aminomethyl]phenyl}quinazoline] | 1.27 ± 0.5 µM | 0.11 | 0.12 | 0.74 |
| 2.26 ± 0.48 µM | ≥ 10 µM | 2410 ± 80 nM | 1120 ± 118 nM | COc1ccc2c(-c3ccc(CNCCCCN4CCN(C)CC4)cc3)cc(-c3ccc(CNCCCCN4CCN(C)CC4)cc3)nc2c1 [Compound 1o, 7-Methoxy-2,4-bis{4-[(4–(4-methylpiperazin-1-yl)butyl)aminomethyl]phenyl}quinoline] | 3.32 ± 0.5 µM | 1.47 | 1.38 | 2.96 |
| 4.42 ± 0.56 µM | ≥ 10 µM | 1960 ± 580 nM | 1100 ± 318 nM | CN1CCN(CCCCNCc2ccc(-c3cc4ccccc4c(-c4ccc(CNCCCCN5CCN(C)CC5)cc4)n3)cc2)CC1 [Compound 2c, 1,3-Bis{4-[(4–(4-methylpiperazin-1-yl)butyl)aminomethyl]phenyl}isoquinoline] | 4.98 ± 0.5 µM | 1.13 | 2.54 | 4.53 |
| 5.96 ± 0.54 µM | ≥ 10 µM | 8910 ± 870 nM | 990 ± 122 nM | COc1ccc2c(-c3ccc(CNCCCCN4CCN(C)CC4)cc3)nc(-c3ccc(CNCCCCN4CCN(C)CC4)cc3)cc2c1 [Compound 2k, 6-Methoxy-1,3-bis{4-[(4–(4-methylpiperazin-1-yl)butyl)aminomethyl]phenyl}isoquinoline] | 6.48 ± 0.6 µM | 1.09 | 0.73 | 6.54 |
| 2.73 ± 0.76 µM | ≥ 10 µM | 4340 ± 500 nM | 1010 ± 135 nM | COc1ccc2c(-c3ccc(CNCCCN4CCN(C)CC4)cc3)cc(-c3ccc(CNCCCN4CCN(C)CC4)cc3)nc2c1 [Compound 1p, 7-Methoxy-2,4-bis{4-[(3–(4-methylpiperazin-1-yl)propyl)aminomethyl]phenyl}quinoline] | 6.44 ± 0.6 µM | 2.36 | 1.48 | 6.37 |
